Experimental data published in patent publication US11957758B2, “Pharmaceutical composition of docetaxel conjugate and preparation method” (SHENZHEN SALUBRIS PHARMACEUTICALS CO. LTD, priority 2017, dated 2024).

Columns and labels:
[1] = Stability of IA1 in different pH environments (HPLC main peak purity); assay type: physicochemical
Protocol: The method for measuring the impurity content in the following examples is as follows, with reference to 0512 liquid chromatography method in the “Chinese Pharmacopoeia” 2015 Edition Volume IV. 20 μl of the system suitability solution, the reference solution, and the test solution are injected into the liquid chromatograph respectively, and the chromatograms are recorded. Calculation formula: each
AT is the peak area of each impurity in the test solution; AS is the average peak area of the main peak in the reference solution; CT is the concentration (mg/ml) of the test solution; Cs is docetaxel conjugate concentration (mg/ml) in the reference solution; F is the correction factor for each impurity.
HPLC conditions: An octadecyl bonded silica gel column (C18, 4.6×150 mm, 3.5 μm); gradient elution, phase A: acetonitrile: 0.1% phosphoric acid=45:55, phase B: acetonitrile; detection wavelength: 225 nm; flow rate: 1.0 ml/min; column temperature: 40° C.

[2] = test system: 4T1 breast cancer; assay: 4T1 breast cancer lung metastasis model of mice, experiment (1); assay type: in vivo, BALB/c mice; conditions: for breast tumor weight compared to the blank control group / number of metastatic nodules on the lung surface compared to the blank control group: tail vein once a week for 4 weeks, D28, IA1 10 mg/kg, DTX 5.7 mg/kg, MDC 10 mg/kg (equimolar); for breast tumor weight compared to the blank control group: FIG. 3A; for number of metastatic nodules on the lung surface compared to the blank control group: FIG. 3B
Protocol: • (1) Cell culture and tumor inoculation: 4T1 cells were cultured in 1640 medium (Gibco) containing 10% fetal bovine serum (Hyclone Corp, USA), 1% glutamine and 1% penicillin-streptomycin. The 4T1 cells in logarithmic growth phase were collected and the cell concentration was adjusted to 1.5×10^6/mL. 0.1 mL 4T1 cells (1.5×10^5/per mouse) were inoculated in the fourth mammary fat pad of female BALB/c mice.
Grouping and administration: BALB/c mice were inoculated with 4T1 breast cancer cells in the mammary fat pad. The day of inoculation was DO. Mice were administered in groups on the fourth day after inoculation. The experiment consisted of four groups: • (1) solvent control group (blank control group), • (2) IA1 10 mg/kg group, • (3) DTX (Docetaxel) 5.7 mg/kg group, • (4) MDC 10 mg/kg group. • (3) and (4) are positive control groups.
(§1) Each group had 10 animals. Mice were administered by tail vein injection once a week for 4 weeks. Animal weight and tumor volume were monitored during the administration. Animals were weighed every 2-3 days, and the long diameter and short diameter of breast tumors were measured with a vernier caliper. The tumor size was calculated by the formula: (½)×long diameter×(short diameter)^2. The experiment was terminated on the 28th day (D28). The mice were sacrificed by cervical dislocation after eyeball blood collection. The breast tumor and lung were weighed. The number of metastatic nodules on the lung surface was counted. The results of tumor weight are shown in FIG. 3A, and the results of the number of metastatic nodules on the lung surface are shown in FIG. 3B.

[3] = test system: 4T1 breast cancer; assay: 4T1 breast cancer lung metastasis model of mice, experiment (2); assay type: in vivo, BALB/c mice; conditions: for increase in breast tumor weight compared with the blank control group / increase in the number of metastatic nodules on the lung surface compared with the blank control group: tail vein once a week for 4 weeks, D28, DTX 5.7 mg/kg, DTX 5.7+MDA-1 4.53 mg/kg, DTX 5.7+MDA-1-linker 4.43 mg/kg; for increase in breast tumor weight compared with the blank control group: FIG. 4A
Protocol: 0.1 mL 4T1 cells (1.5×10^5/per mouse) were inoculated in the fourth mammary fat pad of female BALB/c mice.
Grouping and administration: BALB/c mice were inoculated with 4T1 breast cancer cells in the mammary fat pad. The day of inoculation was DO, and mice were administered in groups on the fourth day after inoculation. The experiment consisted of five groups: • (1) solvent control group (blank control group), • (2) IA1 10 mg/kg group, • (3) DTX (Docetaxel) 5.7 mg/kg group, • (4) DTX (5.7 mg/kg)+MDA-1 (4.53 mg/kg) group, • (5) DTX (5.7 mg/kg)+MDA-1-linker (4.43 mg/kg) group. • (3), (4) and (5) are positive control groups.
as §1, with “4A,” for “3A,”, “4B.” for “3B.”

[4] = test system: 4T1 breast cancer; assay: 4T1 breast cancer lung metastasis model of mice, experiment (3); assay type: in vivo, BALB/c mice; conditions: for increase in tumor weight compared with the blank control group / increase in tumor volume compared with the blank control group: tail vein once a week for 4 weeks, IA1 5 and 10 mg/kg, DTX 2.85 mg/kg, DTX 2.85+MDA-1 2.26 mg/kg, DTX 2.85+MDA-1-linker 2.21 mg/kg; for increase in tumor weight compared with the blank control group: D28, FIG. 5B; for increase in tumor volume compared with the blank control group: FIG. 5A
Protocol: […]. Grouping and administration: BALB/c mice were inoculated with 4T1 breast cancer cells in the mammary fat pad. The day of inoculation was DO, and mice were administered in groups on the fourth day after inoculation. The experiment consisted of six groups: • (1) solvent control group (blank control group), • (2) IA1 5 mg/kg group, • (3) IA1 10 mg/kg group, • (4) DTX (Docetaxel) 2.85 mg/kg group, • (5) DTX (2.85 mg/kg)+MDA-1 (2.26 mg/kg) group, • (6) DTX (2.85 mg/kg)+MDA-1-linker (2.21 mg/kg) group. • (4), (5) and (6) are positive control groups.
as §1, with “counted.” for “counted. The results of tumor weight are shown in FIG. 3A, and the results of the number of metastatic nodules on the lung surface are shown in FIG. 3B.”

SMILES	Decrease in purity of main peak within 14 h (%) ([1]; Acetonitrile/pH 3.0 buffer)	Decrease in purity of main peak within 14 h (%) ([1]; Acetonitrile/pH 4.0 buffer)	Decrease in purity of main peak within 14 h (%) ([1]; Acetonitrile/pH 5.0 buffer)	Decrease in purity of main peak within 14 h (%) ([1]; Acetonitrile/pH 6.0 buffer)	Decrease in purity of main peak within 14 h (%) ([1]; Acetonitrile/pH 7.0 buffer)	Decrease in purity of main peak within 14 h (%) ([1]; Acetonitrile/pH 8.0 buffer)	inhibitory effects on tumor and cancer metastasis ([2]; same experiment, compared with IA1)	breast tumor weight compared to the blank control group [2]	number of metastatic nodules on the lung surface compared to the blank control group [2]	increase of inhibitory effect on lung surface metastatic nodules compared with docetaxel+MDA-1 ([3]; IA1 10 mg/kg versus DTX 5.7 mg/kg+MDA-1 4.53 mg/kg) [%]	increase of inhibitory effect on lung surface metastatic nodules compared with docetaxel+MDA-1+linker ([3]; IA1 10 mg/kg versus DTX 5.7 mg/kg+MDA-1-linker 4.43 mg/kg) [%]	difference in the inhibitory effects on lung surface nodules versus positive control groups ([3]; IA1 10 mg/kg, FIG. 4B)	increase in breast tumor weight compared with the blank control group ([3]; IA1 10 mg/kg)	increase in the number of metastatic nodules on the lung surface compared with the blank control group ([3]; IA1 10 mg/kg, FIG. 4B)	difference in the inhibitory effects on tumor volume and weight versus positive control groups ([4]; IA1 versus docetaxel, docetaxel+MDA-1, docetaxel+MDA-1-linker, FIGS. 5A and 5B)	increase in tumor weight compared with the blank control group [4]	increase in tumor volume compared with the blank control group [4]
CC(=O)O[C@@]12CO[C@@H]1C[C@H](O)[C@@]1(C)C(=O)[C@H](O)C3=C(C)[C@@H](OC(=O)[C@H](OC(=O)CCC(=O)NCCCC[C@H](NC(=O)CC[C@@H](NC(=O)[C@H](C)NC(=O)/C=C/c4ccc(F)cc4Cl)C(N)=O)C(=O)O)[C@@H](NC(=O)OC(C)(C)C)c4ccccc4)C[C@@](O)([C@@H](OC(=O)c4ccccc4)[C@H]21)C3(C)C [IA1]	0.11	0.19	0.19	0.51	7.38	22.55	the most excellent	significantly inhibited	significantly inhibited	27.9	18.6	significant difference	significantly inhibited	significantly inhibited	significant difference	significantly inhibited	significantly inhibited
CC(=O)O[C@@]12CO[C@@H]1C[C@H](O)[C@@]1(C)C(=O)[C@H](O)C3=C(C)[C@@H](OC(=O)[C@H](O)[C@@H](NC(=O)OC(C)(C)C)c4ccccc4)C[C@@](O)([C@@H](OC(=O)c4ccccc4)[C@H]21)C3(C)C [docetaxel]								significantly inhibited	significantly inhibited				significantly inhibited	significantly inhibited		significantly inhibited	significantly inhibited
